Data published in patent US20060240095A1, “Pharmaceutical composition comprising a combination of metformin and a statin” (priority 2003, published 2006).
Where two headings read alike, the source gives them in different places.

Columns and labels:
[1] = cited from earlier work
[2] = cited from earlier work; remark: listed apart in the source
[3] = tested on: C57BL/Ks J Rj-db (db/db) mice; experiment: Serum biomarkers in male db/db mice, simvastatin, metformin and combination per os for 5 days; type: in vivo, mouse; conditions: oral once daily
Experimental: Male 12 weeks old C57BL/Ks J Rj-db (db/db) mice (Janvier, France), weighing in the target range of 30 to 50 g, were used in the study. They were housed 5 per cage in a temperature (19.5-24.5° C.) and relative humidity (45-65%) controlled room with a 12-h light/dark cycle, with ad libitum access to filtered tap-water and irradiated pelleted laboratory chow (ref. A04, SAFE, France) throughout the study. After acclimatization, they were randomized into groups of 10 according to homogeneous glycaemia:
Group 2: Metformin 150 mg/kg
The mice were given the treatment orally once daily for 5 consecutive days at constant time.

ZUCKER fa/fa rats = experiment: Serum biomarkers in Zucker obese (fa/fa) rats, simvastatin, metformin and combination per os for 5 days; conditions: oral
[4] = pH of 7.0; cited from earlier work
[5] = tested on: Zucker obese (fa/fa) rats; conditions: serum, lovastatin 1 mg/kg/day and/or metformin 50 mg/kg twice a day p.o.
[6] = water (distilled water for atorvastatin), in words
[7] = T0 (three days before treatment), metformin 150 mg/kg and/or simvastatin 30 mg/kg
[8] = T0 (three days before treatment), simvastatin 300 mg/kg alone or with metformin 150 mg/kg
[9] = T0 (three days before treatment), simvastatin alone or with metformin 150 mg/kg
[10] = T5 (five days after beginning of treatment), metformin 150 mg/kg and/or simvastatin 30 mg/kg
[11] = T5 (five days after beginning of treatment), simvastatin 300 mg/kg alone or with metformin 150 mg/kg
[12] = T5 (five days after beginning of treatment), simvastatin alone or with metformin 150 mg/kg
[13] = T0 (three days before treatment), simvastatin 0.5 mg/kg and/or metformin 50 mg/kg twice a day
[14] = T0 (three days before treatment), simvastatin 1 mg/kg alone or with metformin 50 mg/kg twice a day
[15] = T5 (five days after beginning of treatment), simvastatin 0.5 mg/kg and/or metformin 50 mg/kg twice a day
[16] = T5 (five days after beginning of treatment), simvastatin 1 mg/kg alone or with metformin 50 mg/kg twice a day
[17] = T0 (three days before beginning of treatment)
[18] = T5 (five days after beginning of treatment)

COCc1c(C(C)C)nc(C(C)C)c(/C=C/[C@@H](O)C[C@@H](O)CC(=O)O)c1-c1ccc(F)cc1 [Cerivastatin]
solubility in water [1, 6]: soluble
effect of food on absorption ([2]; oral administration with food): not sensitive to a food effect

CCC(C)(C)C(=O)O[C@H]1C[C@@H](C)C=C2C=C[C@H](C)[C@H](CC[C@@H]3C[C@@H](O)CC(=O)O3)[C@H]21 [Simvastatin]
Glucose [3, 7]: 36.27 mM
Insulin [3, 7]: 4.60 nM
NEFA [3, 7]: 0.646 mM
Total Cholesterol [3, 7]: 2.96 mM
Triglycerides [3, 7]: 1.34 mM
Glucose [3, 8]: 36.91 mM
Total Cholesterol [3, 8]: 2.95 mM
Insulin [3, 9]: 4.86 nM
NEFA [3, 9]: 0.639 mM
Triglycerides [3, 9]: 1.44 mM
Glucose [3, 10]: 25.95 mM
Insulin [3, 10]: 2.74 nM
NEFA [3, 10]: 0.897 mM
Total Cholesterol [3, 10]: 3.33 mM
Triglycerides [3, 10]: 1.49 mM
Glucose [3, 11]: 21.18 mM
Total Cholesterol [3, 11]: 2.87 mM
Insulin [3, 12]: 2.37 nM
NEFA [3, 12]: 0.785 mM
Triglycerides [3, 12]: 0.78 mM
Glucose (ZUCKER fa/fa rats; [13]): 6.63 mM
HDL C (ZUCKER fa/fa rats; [13]): 2.32 mM
Insulin (ZUCKER fa/fa rats; [13]): 0.55 nM
Total Cholesterol (ZUCKER fa/fa rats; [13]): 2.46 mM
Triglycerides (ZUCKER fa/fa rats; [13]): 4.61 mM
Glucose (ZUCKER fa/fa rats; [14]): 7.08 mM
HDL C (ZUCKER fa/fa rats; [14]): 2.34 mM
Insulin (ZUCKER fa/fa rats; [14]): 0.63 nM
Total Cholesterol (ZUCKER fa/fa rats; [14]): 2.48 mM
Triglycerides (ZUCKER fa/fa rats; [14]): 4.67 mM
Glucose (ZUCKER fa/fa rats; [15]): 9.44 mM
HDL C (ZUCKER fa/fa rats; [15]): 2.32 mM
Insulin (ZUCKER fa/fa rats; [15]): 0.76 nM
Total Cholesterol (ZUCKER fa/fa rats; [15]): 2.46 mM
Triglycerides (ZUCKER fa/fa rats; [15]): 5.23 mM
Glucose (ZUCKER fa/fa rats; [16]): 8.35 mM
HDL C (ZUCKER fa/fa rats; [16]): 2.43 mM
Insulin (ZUCKER fa/fa rats; [16]): 0.67 nM
Total Cholesterol (ZUCKER fa/fa rats; [16]): 2.60 mM
Triglycerides (ZUCKER fa/fa rats; [16]): 5.89 mM

CC(C)n1c(/C=C/C(O)CC(O)CC(=O)O)c(-c2ccc(F)cc2)c2ccccc21 (stereo not drawn) [Fluvastatin]
solubility in water [1, 6]: soluble
time to peak concentrations ([2]; following oral administration): less than 1 hour

CC[C@H](C)C(=O)O[C@H]1C[C@H](O)C=C2C=C[C@H](C)[C@H](CC[C@@H](O)C[C@@H](O)CC(=O)O)[C@H]21 [Pravastatin]
solubility in water ([1]; methanol and water): > 300 mg/mL
partition coefficient (octanol/water) [4]: 0.59

CC[C@H](C)C(=O)O[C@H]1C[C@@H](C)C=C2C=C[C@H](C)[C@H](CC[C@@H]3C[C@@H](O)CC(=O)O3)[C@H]21 [Lovastatin]
solubility in water [1, 6]: insoluble
Glucose [5, 17]: 7.88 mM
HDL C [5, 17]: 2.00 mM
Insulin [5, 17]: 0.35 nM
Total Cholesterol [5, 17]: 2.38 mM
Triglycerides [5, 17]: 4.18 mM
Glucose [5, 18]: 8.21 mM
HDL C [5, 18]: 2.16 mM
Insulin [5, 18]: 0.39 nM
Total Cholesterol [5, 18]: 2.54 mM
Triglycerides [5, 18]: 4.79 mM

CN(C)C(=N)N=C(N)N [Metformin]
Glucose [3, 7]: 37.00 mM
Insulin [3, 7]: 4.60 nM
NEFA [3, 7]: 0.654 mM
Total Cholesterol [3, 7]: 3.07 mM
Triglycerides [3, 7]: 1.30 mM
Glucose [3, 10]: 23.03 mM
Insulin [3, 10]: 2.82 nM
NEFA [3, 10]: 0.798 mM
Total Cholesterol [3, 10]: 3.63 mM
Triglycerides [3, 10]: 1.34 mM
Glucose (ZUCKER fa/fa rats; [13]): 6.69 mM
HDL C (ZUCKER fa/fa rats; [13]): 2.30 mM
Insulin (ZUCKER fa/fa rats; [13]): 0.63 nM
Total Cholesterol (ZUCKER fa/fa rats; [13]): 2.47 mM
Triglycerides (ZUCKER fa/fa rats; [13]): 4.18 mM
Glucose (ZUCKER fa/fa rats; [15]): 9.23 mM
HDL C (ZUCKER fa/fa rats; [15]): 2.16 mM
Insulin (ZUCKER fa/fa rats; [15]): 0.71 nM
Total Cholesterol (ZUCKER fa/fa rats; [15]): 2.32 mM
Triglycerides (ZUCKER fa/fa rats; [15]): 5.12 mM
Glucose [5, 17]: 8.27 mM
HDL C [5, 17]: 2.08 mM
Insulin [5, 17]: 0.34 nM
Total Cholesterol [5, 17]: 2.55 mM
Triglycerides [5, 17]: 4.08 mM
Glucose [5, 18]: 7.73 mM
HDL C [5, 18]: 2.25 mM
Insulin [5, 18]: 0.38 nM
Total Cholesterol [5, 18]: 2.72 mM
Triglycerides [5, 18]: 5.17 mM
